Laboratory results: PubChem BioAssay (NCI)
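Growth conditions: 96-well plates. Treatment: test compound, 48 hours, 5 concentrations. Analysis: linear interpolation between bracketing concentrations; unreached endpoints set to highest concentration. The concentration for 50% growth inhibition is given as GI50. TGI: concentration producing complete growth inhibition.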

Experiments:
Assay in all cases: DTP human tumour cell line panel, 48 h
CAKI-1 renal = tested on: CAKI-1 renal
COLO 205 colon = tested on: COLO 205 colon
EKVX NSCLC = tested on: EKVX NSCLC
HCT-116 colon = tested on: HCT-116 colon
KM12 colon = tested on: KM12 colon
RPMI-8226 leukemia = tested on: RPMI-8226 leukemia
SF-539 CNS = tested on: SF-539 CNS
HT29 colon = tested on: HT29 colon
SF-295 CNS = tested on: SF-295 CNS

| Structure (SMILES) | TGI (CAKI-1 renal) | TGI (COLO 205 colon) | TGI (EKVX NSCLC) | TGI (HCT-116 colon) | TGI (KM12 colon) | TGI (RPMI-8226 leukemia) | TGI (SF-539 CNS) | TGI (HT29 colon) | TGI (SF-295 CNS) | GI50 (CAKI-1 renal) | GI50 (COLO 205 colon) | GI50 (EKVX NSCLC) | GI50 (HCT-116 colon) | GI50 (HT29 colon) | GI50 (KM12 colon) | GI50 (RPMI-8226 leukemia) | GI50 (SF-295 CNS) | GI50 (SF-539 CNS) |
| --- | --- | --- | --- | --- | --- | --- | --- | --- | --- | --- | --- | --- | --- | --- | --- | --- | --- | --- |
| Nc1ncn(C2C=C(CO)C(O)C2O)c(=O)n1 (stereo not drawn) | > 100 µM | 74.2 µM | > 100 µM | > 100 µM | > 100 µM | > 100 µM | > 100 µM | – | – | – | – | – | – | – | – | – | – | – |
| COC(=O)C12CC3CC(C1)CC(C(=O)OC)(C3)C2 | > 100 µM | – | > 100 µM | > 100 µM | > 100 µM | > 100 µM | > 100 µM | > 100 µM | > 100 µM | – | – | – | – | – | – | – | – | – |
| CC[O-].CC[O-].O=C1C(c2ccccc2)=C([O-])c2ccccc21.O=C1C(c2ccccc2)=C([O-])c2ccccc21.[Ti+4] | > 100 µM | > 100 µM | > 100 µM | > 100 µM | > 100 µM | 99.5 µM | > 100 µM | > 100 µM | > 100 µM | > 100 µM | > 100 µM | 60.1 µM | > 100 µM | > 100 µM | 62.9 µM | 30.3 µM | > 100 µM | > 100 µM |
| COc1cc(C(=O)C/C(CCC(=O)Nc2ccc(Cl)cc2C)=N/NC(=O)C(N)=O)ccc1O | > 100 µM | > 100 µM | > 100 µM | > 100 µM | > 100 µM | > 100 µM | > 100 µM | > 100 µM | > 100 µM | – | – | – | – | – | – | – | – | – |
| CCCCCCCCCCC(O)C1CCC(C(O)CCC(O)C2CCC(CCCCCCC[C@H](O)CC3=C[C@@H](C)OC3=O)O2)O1 (stereo partly drawn) | > 100 µM | > 100 µM | > 100 µM | > 53.4 µM | 68.1 µM | > 100 µM | > 100 µM | > 100 µM | > 100 µM | – | – | 4.16 µM | 3.48 µM | – | – | 6.36 µM | – | – |
| Cc1ccc(NC(=O)CC(=O)n2nc(-c3ccccc3)c(N=Nc3ccccc3Cl)c2-c2ccccc2)cc1 | > 100 µM | > 100 µM | > 100 µM | > 100 µM | > 100 µM | > 100 µM | > 100 µM | > 100 µM | > 100 µM | – | > 100 µM | – | – | > 100 µM | > 100 µM | > 100 µM | – | – |
| O=C([CH-]C(=O)c1ccccc1)c1ccccc1.O=C([CH-]C(=O)c1ccccc1)c1ccccc1.O=C([CH-]C(=O)c1ccccc1)c1ccccc1.[OH3+].[Y+3] | 26.8 µM | 30.9 µM | 23.1 µM | 18.3 µM | 24 µM | 32.2 µM | 43.1 µM | 17.1 µM | 19.1 µM | 5.68 µM | 13.2 µM | 3.32 µM | 4.18 µM | 4.09 µM | 5.38 µM | 6.04 µM | 3.99 µM | 9.27 µM |
| Cc1cc(C)nc(NS(=O)(=O)c2ccc(Nc3c4ccc(Cl)cc4nc4c(C(=O)Nc5ccc(S(=O)(=O)N=C(N)N)cc5)cccc34)cc2)n1 | – | – | > 100 µM | > 100 µM | > 100 µM | > 100 µM | > 100 µM | > 100 µM | > 100 µM | – | – | – | – | – | – | – | – | – |
| CCc1nc(N)nc(C(=O)NCCNC(=O)c2nc(N)nc(CC)c2C)c1C | > 100 µM | – | > 100 µM | > 100 µM | > 100 µM | > 100 µM | > 100 µM | > 100 µM | > 100 µM | – | – | – | – | – | – | – | – | – |
| CC(C)C1CCC/C=C/C=C/C=C/C=C/C(OC2OC(C)C(O)C(N)C2O)CC2OC(O)(CC(O)CC(O)C(O)CCC(=O)O1)CC(O)C2C(=O)O (stereo not drawn) | > 52.5 µM | > 52.5 µM | – | > 52.5 µM | – | > 52.5 µM | > 52.5 µM | > 52.5 µM | > 52.5 µM | – | – | – | – | – | – | – | – | – |
| CC(=O)/C(=C\C1=CCCO1)C(=O)Nc1ccccc1C | > 100 µM | – | > 100 µM | > 100 µM | > 100 µM | > 100 µM | > 100 µM | > 100 µM | > 100 µM | – | – | – | – | – | – | – | – | – |
| O=C1NC2CCC(C2)C1c1ccccc1 (stereo not drawn) | – | > 100 µM | > 100 µM | – | > 100 µM | > 100 µM | > 100 µM | > 100 µM | > 100 µM | – | – | – | – | – | – | – | – | – |
| COC(=O)C12C3C4C5C3(C#N)C1C5(C(=O)OC)C42C(=O)N(C(C)C)C(C)C (stereo not drawn) | > 100 µM | > 100 µM | > 100 µM | > 100 µM | > 100 µM | > 69.3 µM | > 100 µM | > 100 µM | > 100 µM | – | – | – | – | – | – | – | – | – |
| CC/C(=C(/CC)c1ccc(O)cc1)c1ccc([O-])cc1.CC/C(=C(/CC)c1ccc(O)cc1)c1ccc([O-])cc1.O=C([CH-]C(=O)c1ccccc1)c1ccccc1.O=C([CH-]C(=O)c1ccccc1)c1ccccc1.[Ti+4] | 61 µM | > 100 µM | 46 µM | 17.3 µM | 35.1 µM | > 100 µM | – | 32 µM | 35 µM | 16.3 µM | 33.8 µM | 17.6 µM | 5.22 µM | 18.1 µM | 12.5 µM | 30.5 µM | 17.9 µM | – |
| COc1ccc2c(CN3CCC[C@H]3C(=O)O)cc3cc4c(cc3c2c1)OCO4 | 88.6 µM | 46.2 µM | 65.7 µM | > 100 µM | 41.8 µM | 39.3 µM | 29.5 µM | 62 µM | 39.4 µM | 25 µM | 6.3 µM | 20.2 µM | 4.8 µM | 8.46 µM | 12 µM | 9.87 µM | 8.88 µM | 10.7 µM |
| CC1(C)CCC[C@@]2(C)C1CC[C@H]1CC(O)C3(C)CCC12C3 (stereo partly drawn) | 32 µM | – | – | 31 µM | 31.3 µM | 72.6 µM | 33 µM | 32.1 µM | – | – | – | – | – | – | – | – | – | – |
| CCCC(C)C[C@@H](C)CC(C)/C=C(\C)c1oc(=O)c(C)c(O)c1C (stereo partly drawn) (tested in a mixture with another compound) | 28.1 µM | 46 µM | 31.9 µM | 32.3 µM | 41.4 µM | – | 30.1 µM | 27.6 µM | 25.9 µM | – | – | – | – | – | – | – | – | – |
| CCCCc1ccc(-n2c3nc(=O)n(C)c(=O)c-3nc3ccccc32)cc1 | 54.5 µM | 13 µM | 15.5 µM | 25.6 µM | 26.6 µM | 57 µM | 27.1 µM | 11.8 µM | 23.1 µM | – | – | – | – | – | – | – | – | – |
| CN(C)CC/C(=N\Nc1ccccc1)c1ccccc1 | 11.2 µM | 33.5 µM | 41.2 µM | 34.4 µM | 18.3 µM | > 100 µM | 32.6 µM | 10 µM | 6.89 µM | – | – | – | – | – | – | – | – | – |
| CCOC(=O)C1=C(Nc2ccc(Cl)cc2Cl)OC/C1=N\NS(=O)(=O)c1ccc(C)cc1 | > 100 µM | > 100 µM | > 100 µM | > 100 µM | > 100 µM | – | > 100 µM | > 100 µM | > 100 µM | – | – | – | – | – | – | – | – | – |
| O=C1c2ccccc2C2(O)NC(=S)N(c3ccccc3)C12O (stereo not drawn) | > 100 µM | > 100 µM | > 100 µM | > 100 µM | > 100 µM | > 100 µM | > 100 µM | > 100 µM | > 100 µM | – | – | – | – | – | – | – | – | – |
| NC1CCCCC1N.O=S(=O)([O-])CCCN1CCOCC1.O=S(=O)([O-])CCCN1CCOCC1.[Pt+4] | > 85.8 µM | 42.8 µM | > 100 µM | > 100 µM | > 100 µM | > 51.4 µM | > 100 µM | > 100 µM | > 100 µM | 5.01 µM | 10.7 µM | > 100 µM | 4.2 µM | 12.8 µM | 35.1 µM | 1.05 µM | 15.5 µM | 27.5 µM |
| COc1ccc(C(=O)OC2C=COC(C)C2OC(=O)c2ccc(OC)cc2)cc1 (stereo not drawn) | > 100 µM | > 100 µM | > 100 µM | 21.8 µM | 40.2 µM | 47.2 µM | 33.6 µM | 62.4 µM | > 100 µM | – | – | – | – | – | – | – | – | – |
| Cc1ccc(NC(=O)CCC/C(CC(=O)c2ccc(Br)cc2)=N/NC(=O)CC#N)cc1 | – | > 100 µM | > 100 µM | > 100 µM | > 100 µM | > 100 µM | – | > 100 µM | > 100 µM | – | – | – | – | – | – | – | – | – |
| CCn1c(O)c(C=N)c(=O)n(CC)c1=O | > 100 µM | > 100 µM | > 100 µM | > 100 µM | > 100 µM | – | > 100 µM | > 100 µM | > 100 µM | – | – | – | – | – | – | – | – | – |
| C[C@]12CC[C@H](OCCC#N)CC1=CC[C@@H]1C2CC[C@]2(C)/C(=N/OCCC#N)CCC12 (stereo partly drawn) | > 100 µM | > 100 µM | > 100 µM | > 100 µM | > 100 µM | > 100 µM | > 100 µM | – | > 100 µM | – | – | – | – | – | – | – | – | – |
| COC(=O)C(=O)C(C#N)c1ccc(CC#N)cc1 (stereo not drawn) | > 100 µM | – | > 100 µM | > 100 µM | > 100 µM | > 100 µM | > 100 µM | > 100 µM | > 100 µM | – | – | – | – | – | – | – | – | – |
| Cc1nc2cc(N)c(F)cc2[nH]1 | > 100 µM | > 100 µM | > 100 µM | – | > 100 µM | – | > 100 µM | > 100 µM | > 100 µM | – | – | – | – | – | – | – | – | – |
| O=c1ccnc2c1ccc1[nH]cccc12 | – | > 100 µM | > 100 µM | > 100 µM | > 100 µM | – | > 100 µM | > 100 µM | – | – | – | – | – | – | – | – | – | – |
| NC(=S)N/N=C(\C(=O)Nc1cccc([N+](=O)[O-])c1)c1nc2ccc([N+](=O)[O-])cc2[nH]c1=O | – | > 100 µM | > 100 µM | > 100 µM | > 100 µM | > 100 µM | > 100 µM | > 100 µM | > 100 µM | – | – | – | – | – | – | – | – | – |
